ChEMBL document CHEMBL5579895, “Discovery of TYRA-300: First Oral Selective FGFR3 Inhibitor for the Treatment of Urothelial Cancers and Achondroplasia” (J Med Chem, 2024)
pIC50: −log10 of the molar value. Converted amounts (≈) assume the structure as drawn.

Experiments:
[1] = Cmax in Sprague-Dawley rat at 10 mg/kg, po measured for 24 hrs by LC-MS/MS analysis; assay type: ADME, organism-based; settings: in vivo
[2] = AUC (last) in monkey at 1 mg/kg, iv measured for 24 hrs by LC-MS/MS analysis; assay type: ADME, organism-based, Macaca mulatta; settings: rhesus monkey, in vivo
[3] = target: Voltage-gated inwardly rectifying potassium channel KCNH2 (Homo sapiens, UniProt Q12809); assay: Inhibition of hERG expressed in CHO cells by automated patch-clamp assay; assay type: toxicity, cell-based
[4] = Half life in Sprague-Dawley rat at 2 mg/kg, iv measured for 24 hrs by LC-MS/MS analysis; assay type: ADME, organism-based; settings: in vivo
[5] = Tmax in Sprague-Dawley rat at 10 mg/kg, po measured for 24 hrs by LC-MS/MS analysis; assay type: ADME, organism-based; settings: in vivo
RT112/84 [6] = assay: animal or person; assay type: functional, Homo sapiens; settings: Mus musculus, RT112/84, 504 h, route po, time 21 day, read-out: TGI
Description: Antitumor activity against human RT112/84 cells harboring FGFR3/TACC3 fusion xenografted in Balb/c nude mouse model at 12.5 mg/kg, po bid treated for 21 days relative to control

[7] = Stability in rat hepatocytes assessed as half life at 1 uM incubated upto 180 mins by LC-MS/MS analysis; assay type: ADME, cell-based, Hepatocyte
[8] = target: T1, Fibroblast growth factor receptor 3 (Homo sapiens, UniProt P22607); assay: Inhibition of wild-type FGFR3 (unknown origin) by mobility shift assay
T1 sequence (P22607 whole entry): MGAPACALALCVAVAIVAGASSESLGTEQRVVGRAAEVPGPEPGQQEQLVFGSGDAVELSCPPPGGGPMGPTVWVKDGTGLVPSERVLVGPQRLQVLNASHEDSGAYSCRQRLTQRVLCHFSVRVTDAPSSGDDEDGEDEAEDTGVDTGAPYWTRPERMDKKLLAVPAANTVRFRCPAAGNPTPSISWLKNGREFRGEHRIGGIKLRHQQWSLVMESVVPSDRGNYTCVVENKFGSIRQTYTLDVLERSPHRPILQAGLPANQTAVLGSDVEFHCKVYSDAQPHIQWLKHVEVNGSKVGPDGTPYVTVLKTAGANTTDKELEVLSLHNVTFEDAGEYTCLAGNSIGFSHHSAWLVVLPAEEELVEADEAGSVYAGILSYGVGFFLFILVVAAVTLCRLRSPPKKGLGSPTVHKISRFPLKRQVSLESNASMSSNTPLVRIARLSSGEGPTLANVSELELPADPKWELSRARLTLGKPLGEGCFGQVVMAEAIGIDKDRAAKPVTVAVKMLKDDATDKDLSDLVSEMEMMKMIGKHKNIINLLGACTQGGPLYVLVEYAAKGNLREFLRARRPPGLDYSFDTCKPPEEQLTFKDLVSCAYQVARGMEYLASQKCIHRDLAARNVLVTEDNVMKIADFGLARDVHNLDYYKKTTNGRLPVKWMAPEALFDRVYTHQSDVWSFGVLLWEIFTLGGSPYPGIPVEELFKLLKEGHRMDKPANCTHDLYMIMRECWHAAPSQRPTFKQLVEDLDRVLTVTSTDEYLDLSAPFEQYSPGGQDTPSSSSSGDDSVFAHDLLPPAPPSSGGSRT

RT112/84 [9] = assay: animal or person; assay type: functional, Homo sapiens; settings: Mus musculus, RT112/84, 504 h, route po, time 21 day, read-out: TGI; remark: listed apart in the source
Description: Antitumor activity against human RT112/84 cells harboring FGFR3 V555M mutant xenografted in Balb/c nude mouse model at 12.5 mg/kg, po bid treated for 21 days relative to control

[10] = Thermodynamic solubility in FaSSGF; assay type: ADME; settings: read-out: Therm_solubility
[11] = Half life in monkey at 1 mg/kg, iv measured for 24 hrs by LC-MS/MS analysis; assay type: ADME, organism-based, Macaca mulatta; settings: rhesus monkey, in vivo
[12] = Inhibition of cell viability in human UMUC14 cells harboring FGFR3 V555M mutant incubated for 72 to 120 hrs by Cell Titer Glo assay; assay type: functional, cell-based
[13] = target: T1, Fibroblast growth factor receptor 3; assay: Inhibition of wild-type FGFR3 (unknown origin) by NanoBRET assay
[14] = target: Fibroblast growth factor receptor 4 (Homo sapiens, UniProt P22455); assay: Inhibition of human FGFR4 by KINOMEscan analysis
[15] = Clearance in dog at 1 mg/kg, iv measured for 24 hrs by LC-MS/MS analysis; assay type: ADME, organism-based, Canis lupus familiaris; settings: in vivo
[16] = AUC (last) in Sprague-Dawley rat at 10 mg/kg, po measured for 24 hrs by LC-MS/MS analysis; assay type: ADME, organism-based; settings: in vivo
[17] = Inhibition of cell viability in human UMUC14 cells harboring FGFR3 S249C mutant incubated for 72 to 120 hrs by Cell Titer Glo assay; assay type: functional, cell-based
[18] = AUC (last) in monkey at 10 mg/kg, po measured for 24 hrs by LC-MS/MS analysis; assay type: ADME, organism-based, Macaca mulatta; settings: rhesus monkey, in vivo
[19] = Tmax in monkey at 10 mg/kg, po measured for 24 hrs by LC-MS/MS analysis; assay type: ADME, organism-based, Macaca mulatta; settings: rhesus monkey, in vivo
[20] = target: T2, Vascular endothelial growth factor receptor 2 (Homo sapiens, UniProt P35968); assay: Inhibition of human VEGFR2 by KINOMEscan analysis
T2 sequence (P35968 whole entry): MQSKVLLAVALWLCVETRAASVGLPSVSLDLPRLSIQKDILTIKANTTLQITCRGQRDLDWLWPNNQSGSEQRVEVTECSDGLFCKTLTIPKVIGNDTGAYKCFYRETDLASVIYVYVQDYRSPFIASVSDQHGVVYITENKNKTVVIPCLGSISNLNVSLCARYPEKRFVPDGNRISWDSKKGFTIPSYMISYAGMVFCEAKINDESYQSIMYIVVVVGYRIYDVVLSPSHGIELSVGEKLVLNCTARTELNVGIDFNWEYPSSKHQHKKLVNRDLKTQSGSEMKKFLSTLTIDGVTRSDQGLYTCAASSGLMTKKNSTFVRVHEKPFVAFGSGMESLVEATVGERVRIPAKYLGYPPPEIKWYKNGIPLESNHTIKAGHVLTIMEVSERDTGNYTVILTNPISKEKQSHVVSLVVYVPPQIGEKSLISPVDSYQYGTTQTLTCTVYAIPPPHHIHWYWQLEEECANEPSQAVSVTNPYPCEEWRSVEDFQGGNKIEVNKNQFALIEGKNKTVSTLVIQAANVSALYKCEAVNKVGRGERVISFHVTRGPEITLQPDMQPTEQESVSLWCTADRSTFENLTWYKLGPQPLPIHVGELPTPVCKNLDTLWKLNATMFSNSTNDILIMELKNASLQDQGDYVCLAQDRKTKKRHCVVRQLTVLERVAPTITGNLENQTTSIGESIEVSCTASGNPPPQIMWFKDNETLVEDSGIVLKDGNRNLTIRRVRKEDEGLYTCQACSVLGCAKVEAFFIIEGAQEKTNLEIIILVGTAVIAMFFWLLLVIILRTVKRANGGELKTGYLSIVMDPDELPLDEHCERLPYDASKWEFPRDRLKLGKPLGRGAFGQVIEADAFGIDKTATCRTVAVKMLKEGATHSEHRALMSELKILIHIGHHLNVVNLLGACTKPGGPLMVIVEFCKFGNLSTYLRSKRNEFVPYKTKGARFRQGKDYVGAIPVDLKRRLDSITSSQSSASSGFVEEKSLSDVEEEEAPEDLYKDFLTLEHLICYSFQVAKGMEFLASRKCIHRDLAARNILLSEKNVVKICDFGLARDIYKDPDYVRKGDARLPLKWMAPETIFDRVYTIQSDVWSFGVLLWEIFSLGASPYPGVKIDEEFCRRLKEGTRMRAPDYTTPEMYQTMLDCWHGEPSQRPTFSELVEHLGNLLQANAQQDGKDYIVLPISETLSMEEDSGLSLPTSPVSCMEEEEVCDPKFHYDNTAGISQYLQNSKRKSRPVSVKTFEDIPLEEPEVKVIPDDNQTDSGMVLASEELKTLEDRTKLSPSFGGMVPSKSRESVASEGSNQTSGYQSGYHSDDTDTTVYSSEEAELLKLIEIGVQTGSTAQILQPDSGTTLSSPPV

[21] = Stability in human hepatocytes assessed as intrinsic clearance at 1 uM incubated upto 180 mins by LC-MS/MS analysis; assay type: ADME, cell-based, Hepatocyte; settings: read-out: CLH
[22] = Apparent permeability in MDCK-MDR1 cells; assay type: ADME, cell-based, Canis lupus familiaris; settings: dog
[23] = target: Fibroblast growth factor receptor 3 (Homo sapiens, UniProt P22607, K650M); assay: Inhibition of FGFR3 K650M mutant (unknown origin) by mobility shift assay
Fibroblast growth factor receptor 3 (Homo sapiens, UniProt P22607, K650M), sequence (P22607 23-806 K650M limits assumed): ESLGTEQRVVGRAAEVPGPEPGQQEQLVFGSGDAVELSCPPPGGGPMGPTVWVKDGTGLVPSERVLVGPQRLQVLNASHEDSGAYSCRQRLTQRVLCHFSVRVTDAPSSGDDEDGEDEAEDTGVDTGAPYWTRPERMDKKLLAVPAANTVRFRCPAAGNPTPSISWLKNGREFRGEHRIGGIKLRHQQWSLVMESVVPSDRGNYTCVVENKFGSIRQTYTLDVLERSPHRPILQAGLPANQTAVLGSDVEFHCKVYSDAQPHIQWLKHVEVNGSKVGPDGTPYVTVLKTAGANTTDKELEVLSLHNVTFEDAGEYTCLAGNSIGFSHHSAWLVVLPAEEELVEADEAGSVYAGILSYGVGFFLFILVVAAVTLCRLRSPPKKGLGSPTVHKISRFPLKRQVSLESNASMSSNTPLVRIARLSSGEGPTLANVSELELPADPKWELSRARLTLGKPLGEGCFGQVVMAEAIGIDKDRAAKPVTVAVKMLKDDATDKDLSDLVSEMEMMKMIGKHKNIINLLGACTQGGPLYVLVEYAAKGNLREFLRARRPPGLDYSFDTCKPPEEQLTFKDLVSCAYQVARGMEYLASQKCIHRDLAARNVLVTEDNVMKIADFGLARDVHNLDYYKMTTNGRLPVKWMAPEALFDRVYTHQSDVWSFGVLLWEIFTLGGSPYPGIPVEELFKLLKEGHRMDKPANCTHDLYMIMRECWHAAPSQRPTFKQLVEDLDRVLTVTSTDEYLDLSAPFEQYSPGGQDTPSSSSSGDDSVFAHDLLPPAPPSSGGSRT

[24] = target: Tyrosine-protein kinase JAK3 (Homo sapiens, UniProt P52333); assay: Inhibition of human JAK3 by KINOMEscan analysis
[25] = target: Fibroblast growth factor receptor 2 (Homo sapiens, UniProt P21802); assay: Inhibition of human FGFR2 by KINOMEscan analysis
Fibroblast growth factor receptor 2, sequence (P21802 whole entry): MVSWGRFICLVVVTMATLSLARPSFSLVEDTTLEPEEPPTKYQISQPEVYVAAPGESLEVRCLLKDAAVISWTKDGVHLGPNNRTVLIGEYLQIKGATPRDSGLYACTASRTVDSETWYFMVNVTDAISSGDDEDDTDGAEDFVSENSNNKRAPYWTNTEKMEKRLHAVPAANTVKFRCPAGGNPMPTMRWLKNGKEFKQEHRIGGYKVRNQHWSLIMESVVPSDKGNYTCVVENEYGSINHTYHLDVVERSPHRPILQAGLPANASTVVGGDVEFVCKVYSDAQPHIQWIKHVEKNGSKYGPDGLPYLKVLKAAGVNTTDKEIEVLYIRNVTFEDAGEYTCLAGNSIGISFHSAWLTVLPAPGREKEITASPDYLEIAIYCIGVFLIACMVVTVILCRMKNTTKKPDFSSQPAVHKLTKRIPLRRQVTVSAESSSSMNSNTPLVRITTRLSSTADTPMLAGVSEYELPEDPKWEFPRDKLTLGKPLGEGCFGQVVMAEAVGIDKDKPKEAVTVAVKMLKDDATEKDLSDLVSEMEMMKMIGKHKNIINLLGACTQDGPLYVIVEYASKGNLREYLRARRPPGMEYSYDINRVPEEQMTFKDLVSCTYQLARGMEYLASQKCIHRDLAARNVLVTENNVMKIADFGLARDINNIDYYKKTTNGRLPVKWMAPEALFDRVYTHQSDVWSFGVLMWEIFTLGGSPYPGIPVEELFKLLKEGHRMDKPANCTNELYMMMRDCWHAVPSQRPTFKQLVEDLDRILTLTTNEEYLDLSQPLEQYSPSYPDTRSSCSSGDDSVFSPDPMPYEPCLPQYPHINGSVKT

[26] = Oral bioavailability in Sprague-Dawley rat at 10 mg/kg measured for 24 hrs by LC-MS/MS analysis; assay type: ADME, organism-based; settings: in vivo
[27] = Tmax in dog at 10 mg/kg, po measured for 24 hrs by LC-MS/MS analysis; assay type: ADME, organism-based, Canis lupus familiaris; settings: in vivo
[28] = AUC (last) in dog at 10 mg/kg, po measured for 24 hrs by LC-MS/MS analysis; assay type: ADME, organism-based, Canis lupus familiaris; settings: in vivo
[29] = Stability in dog hepatocytes assessed as half life at 1 uM incubated upto 180 mins by LC-MS/MS analysis; assay type: ADME, cell-based, Canis lupus familiaris, Hepatocyte
DMS-114 = assay: Inhibition of cell viability in human DMS-114 cells harboring FGFR1-amplification incubated for 72 to 120 hrs by Cell Titer Glo assay; assay type: functional, cell-based
[30] = AUC (last) in dog at 1 mg/kg, iv measured for 24 hrs by LC-MS/MS analysis; assay type: ADME, organism-based, Canis lupus familiaris; settings: in vivo
[31] = Volume of distribution in dog at 1 mg/kg, iv measured for 24 hrs by LC-MS/MS analysis; assay type: ADME, organism-based, Canis lupus familiaris; settings: in vivo
[32] = Clearance in Sprague-Dawley rat at 2 mg/kg, iv measured for 24 hrs by LC-MS/MS analysis; assay type: ADME, organism-based; settings: in vivo
RT112/84 [33] = assay: cells; assay type: functional, cell-based; settings: Homo sapiens
Description: Inhibition of cell viability in human RT112/84 cells harboring FGFR3 V555M mutant incubated for 72 to 120 hrs by Cell Titer Glo assay

[34] = target: Fibroblast growth factor receptor 3 (Homo sapiens, UniProt P22607, V555M); assay: Inhibition of FGFR3 V555M mutant (unknown origin) by mobility shift assay
Fibroblast growth factor receptor 3 (Homo sapiens, UniProt P22607, V555M), sequence (P22607 23-806 V555M limits assumed): as the sequence (P22607 23-806 K650M limits assumed) above, with V533M, M628K counted along it

[35] = target: Tyrosine-protein kinase JAK2 (Homo sapiens, UniProt O60674); assay: Inhibition of human JAK2 by KINOMEscan analysis
Tyrosine-protein kinase JAK2, sequence (O60674 whole entry): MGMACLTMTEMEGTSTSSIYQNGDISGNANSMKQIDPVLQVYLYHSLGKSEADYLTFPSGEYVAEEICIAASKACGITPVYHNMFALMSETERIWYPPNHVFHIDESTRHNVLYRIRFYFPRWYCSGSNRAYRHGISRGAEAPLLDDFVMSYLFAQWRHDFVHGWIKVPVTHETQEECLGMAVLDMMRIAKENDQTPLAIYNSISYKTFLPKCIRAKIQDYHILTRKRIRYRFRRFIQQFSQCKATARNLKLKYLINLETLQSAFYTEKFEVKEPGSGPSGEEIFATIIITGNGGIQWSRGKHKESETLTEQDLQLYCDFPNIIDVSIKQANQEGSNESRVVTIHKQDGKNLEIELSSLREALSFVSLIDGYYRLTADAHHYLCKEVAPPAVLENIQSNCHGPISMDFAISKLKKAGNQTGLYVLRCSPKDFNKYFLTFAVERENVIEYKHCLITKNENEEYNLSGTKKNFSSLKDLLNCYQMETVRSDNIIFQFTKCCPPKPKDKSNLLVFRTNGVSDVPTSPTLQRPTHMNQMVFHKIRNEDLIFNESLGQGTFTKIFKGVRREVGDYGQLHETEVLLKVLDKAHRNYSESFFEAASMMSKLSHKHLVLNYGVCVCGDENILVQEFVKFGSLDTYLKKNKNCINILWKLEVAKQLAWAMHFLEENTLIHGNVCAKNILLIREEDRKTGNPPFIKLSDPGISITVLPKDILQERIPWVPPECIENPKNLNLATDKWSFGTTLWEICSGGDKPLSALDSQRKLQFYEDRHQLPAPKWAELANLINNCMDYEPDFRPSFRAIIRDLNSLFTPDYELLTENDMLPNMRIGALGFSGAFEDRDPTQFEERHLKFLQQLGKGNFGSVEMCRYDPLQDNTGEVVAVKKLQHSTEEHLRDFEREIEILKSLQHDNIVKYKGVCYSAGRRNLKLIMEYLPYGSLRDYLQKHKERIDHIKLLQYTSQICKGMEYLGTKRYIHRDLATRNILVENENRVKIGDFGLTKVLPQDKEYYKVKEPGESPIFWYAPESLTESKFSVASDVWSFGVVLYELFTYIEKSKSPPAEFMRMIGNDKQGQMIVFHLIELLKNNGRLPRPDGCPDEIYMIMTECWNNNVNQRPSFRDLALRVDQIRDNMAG

[36] = target: Fibroblast growth factor receptor 3 (Homo sapiens, UniProt P22607, V555L); assay: Inhibition of FGFR3 V555L mutant (unknown origin) by mobility shift assay
Fibroblast growth factor receptor 3 (Homo sapiens, UniProt P22607, V555L), sequence (P22607 23-806 V555L limits assumed): as the sequence (P22607 23-806 K650M limits assumed) above, with V533L, M628K counted along it

[37] = target: T2, Vascular endothelial growth factor receptor 2; assay: Inhibition of human VEGFR2 at 100 nM by KINOMEscan analysis relative to control
RT-4 = assay: Inhibition of cell viability in human RT-4 cells harboring FGFR3/TACC3 fusion incubated for 72 to 120 hrs by Cell Titer Glo assay; assay type: functional, cell-based
[38] = Volume of distribution in monkey at 1 mg/kg, iv measured for 24 hrs by LC-MS/MS analysis; assay type: ADME, organism-based, Macaca mulatta; settings: rhesus monkey, in vivo
[39] = Oral bioavailability in monkey at 10 mg/kg measured for 24 hrs by LC-MS/MS analysis; assay type: ADME, organism-based, Macaca mulatta; settings: rhesus monkey, in vivo
KG-1 = assay: Inhibition of cell viability in human KG-1 cells harboring FGFR1-fusion incubated for 72 to 120 hrs by Cell Titer Glo assay; assay type: functional, cell-based
[40] = Volume of distribution in Sprague-Dawley rat at 2 mg/kg, iv measured for 24 hrs by LC-MS/MS analysis; assay type: ADME, organism-based; settings: in vivo
RT112/84 [41] = assay: cells; assay type: functional, cell-based; settings: Homo sapiens; remark: listed apart in the source
Description: Inhibition of cell viability in human RT112/84 cells harboring FGFR3/TACC3 fusion incubated for 72 to 120 hrs by Cell Titer Glo assay

[42] = target: Vascular endothelial growth factor receptor 1 (Homo sapiens, UniProt P17948); assay: Inhibition of human FLT1 by KINOMEscan analysis
[43] = Half life in dog at 1 mg/kg, iv measured for 24 hrs by LC-MS/MS analysis; assay type: ADME, organism-based, Canis lupus familiaris; settings: in vivo
[44] = Thermodynamic solubility in FaSSIF; assay type: ADME; settings: read-out: Therm_solubility
[45] = target: Fibroblast growth factor receptor 3 (Homo sapiens, UniProt P22607, G380R); assay: Inhibition of FGFR3 G380R mutant (unknown origin) by NanoBRET assay
Fibroblast growth factor receptor 3 (Homo sapiens, UniProt P22607, G380R), sequence (P22607 23-806 G380R limits assumed): as the sequence (P22607 23-806 K650M limits assumed) above, with G358R, M628K counted along it

Cmax [1]: 802 ng/mL | AUC(0-t) at 24 h [2]: 1500 ng·h/mL | half-life [4]: 1.93 h | Tmax [5]: 4 h | half-life at 1 µM [7]: 1.23 h | pIC50 [8]: 8.80 | solubility thermodynamic [10]: 34 µM (≈ 19 µg/mL) | half-life [11]: 1.17 h | pIC50 [13]: 7.68 | pIC50 [14]: 7.96 | clearance [15]: 2.68 mL/min/kg | AUC(0-t) at 24 h [16]: 3360 ng·h/mL | AUC(0-t) at 24 h [18]: 15900 ng·h/mL | Tmax [19]: 6 h | pIC50 [20]: 6.49 | CLint scaled at 1 µM [21]: 14 mL/min/kg | Papp [22]: 1 ×10⁻⁶ cm/s | pIC50 [23]: 8.64 | pIC50 [24]: 6.69 | pIC50 [25]: 8.15 | bioavailability [26]: 39% | Tmax [27]: 6 h | AUC(0-t) at 24 h [28]: 58300 ng·h/mL | half-life at 1 µM [29]: > 1.67 h | AUC(0-t) at 24 h [30]: 5930 ng·h/mL | Vd [31]: 1.12 L/kg | clearance [32]: 17.5 mL/min/kg | pIC50 (RT112/84 [33]): 7.77 | pIC50 [34]: 8.70 | pIC50 [35]: 7.44 | pIC50 [36]: 8.82 | inhibition [37]: < 90% | Vd [38]: 0.94 L/kg | bioavailability [39]: 106% | Vd [40]: 2.5 L/kg | pIC50 (RT112/84 [41]): 8.05 | pIC50 [42]: 6.70 | half-life [43]: 5.52 h | solubility thermodynamic [44]: 20 µM (≈ 11.2 µg/mL) | pIC50 [45]: 7.68
Structure (SMILES): C[C@@H](Oc1ccc2[nH]nc(-c3ccc(N4CC5(C4)CN(S(C)(=O)=O)C5)nc3)c2c1)c1c(Cl)cncc1Cl
pIC50 [3]: 5.03 | inhibition in vivo at 12.5 mg/kg (RT112/84 [6]): 95% | inhibition in vivo at 12.5 mg/kg (RT112/84 [9]): 77% | pIC50 [12]: 7.68 | pIC50 [17]: 7.80 | pIC50 (DMS-114): 6.69 | pIC50 (RT-4): 8.00 | pIC50 (KG-1): 6.96
